# PubChem BioAssay AID179 (DTP/NCI, 2004)
# pEC50, pIC50: −log10 of the molar value. Several values for one entry are separate records, joined by “and”; a condition that tells them apart may be missing. Equal entries are not always repeated. Activity calls are given as the source filed them.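 Rule for the calls: active = compounds giving half or more protection of infected cells from virus-caused growth loss, again on retest; inactive = the rest.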
# Test system: CEM cells HIV-1 protection, formazan growth assay
# Assay: NCI AIDS Antiviral Assay
# Settings: for pIC50: measured here: growth of uninfected CEM cells
# Method in brief: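 Five concentrations of each compound were applied to infected and uninfected human CEM cells. Protection from HIV-1 was judged from growth measured with a soluble formazan assay.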
SMILES,pEC50,pIC50,outcome
O=c1[nH]cnc2c1ncn2[C@@H]1C[C@@H]1CO,< 3.70,< 3.70,–
CC/C=C(\C)C(CCC)(CN=O)C(=O)OCC (stereo unspecified),–,–,inactive
Brc1cnc2n[nH]nc2c1,< 3.04,3.28,–
S=c1cc(S)sc2c1c(=S)sc1nc3ccccn3c(=S)c12,< 5.02,< 5.02,–
O=S(=O)(/N=S(/Nc1ccccc1)C(Cl)Cl)c1ccccc1 (stereo unspecified),< 3.70,< 3.70,–
N#CCCN(CCC#N)c1ccc(/C=C2\N=C(c3ccccc3)N(NC(N)=S)C2=O)cc1,< 3.70,< 3.70,–
O=P(N1CC1)(N1CC1)N1CCN(P(=O)(N2CC2)N2CC2)CC1,< 3.70,5.65,–
Clc1cccc2[nH]ncc12,< 3.70,< 4.00,–
CC1=Nc2ccc(Cl)cc2N=C(C)C1,< 3.70,3.81,–
CCOC(=O)NNC(=O)NCCCCNC(=O)NNC(=O)OCC,< 3.70,< 3.70,–
COCCOc1cc(C)cc(/C=C(C)/C=C/C2=C(C)CCCC2(C)C)n1,–,–,inactive
CN(C(=O)c1cccs1)C(=S)N1CCN(c2ccccn2)CC1,< 3.71,3.96,–
C1=C(c2ccccc2)C(N2CCOCC2)Oc2ccccc21 (stereo unspecified),< 3.70,4.05,–
Cc1c(Cc2ccccc2)n(COCCCN2C(=O)c3ccccc3C2=O)c(=O)[nH]c1=O,< 3.70,4.58,–
O=S1(=O)CS(=O)(=O)CS(=O)(=O)C1,< 3.70,4.05,–
O=c1sc(Nc2ccc3ccccc3c2Cl)nc2ccccc12,< 3.70,< 3.70,–
CC(C)(SSC(C)(C)C(N)C(=O)O)C(N)C(=O)O (stereo unspecified),< 3.37,< 3.37,–
CC1(C)SC2C(NC(=O)C(C(=O)O)c3ccccc3)C(=O)N2C1C(=O)O (stereo unspecified),< 3.70,< 3.70,–
COc1cccc(C[C@H]2C(=O)OC[C@@H]2Cc2ccc(OC)c(OC)c2)c1,< 3.70,4.24,–
CCOC(=O)C(N=C(c1ccccc1)c1ccccc1)N(C(=O)OC(C)(C)C)C(=O)OC(C)(C)C (stereo unspecified),–,–,inactive
COC(=O)[C@H](Cc1ccccc1)NC(=O)N(CCN(CCC#N)C(=O)N[C@H](C(=O)OC)C(C)C)c1ccccc1,< 3.70,4.08,–
CC(C)N(C(C)C)[PH+]1O[PH+](N(C(C)C)C(C)C)O[PH+](N(C(C)C)C(C)C)O[PH+](N(C(C)C)C(C)C)O[PH+](N(C(C)C)C(C)C)O1.[C-]#[O+].[C-]#[O+].[C-]#[O+].[C-]#[O+].[C-]#[O+].[C-]#[O+].[C-]#[O+].[Cr].[Cr] (stereo unspecified),< 4.60,< 4.60,–

SMILES,pEC50,pIC50,outcome
O=c1oc2ccccc2cc1F,< 3.52,< 3.52,–
CC1(C)OC(=O)C(=Cc2ccccc2Br)C(=O)O1,< 3.38,5.89,–
CCN(CC)C(=S)SSC(=S)N(CC)CC,< 3.70,4.35,–
COC(OC)c1cc2c(cc1C(=O)[C@@]13CCC[C@@H]1NC(=O)O3)OCO2,–,–,inactive
O=P(O)(O)CN1CCNCCN(CP(=O)(O)O)CCNCC1,< 3.70,5.00,–
CC(C)(Cc1ccccc1)Cc1cc(O)ccc1O,5.89,5.14,–
O=C(OCCCl)c1ccccc1NC(=O)N1CCOCC1,–,–,inactive
CC1=NN(C(=O)CC(=O)Nc2ccc(C)cc2)C(=O)C1N=Nc1ccc(S(=O)(=O)c2ccc(N=NC3C(=O)N(C(=O)CC(=O)Nc4ccc(C)cc4)N=C3C)cc2)cc1 (stereo unspecified),< 4.30,< 4.30,–
N#C/C(=C\c1cccc(N)c1)c1ccccc1,< 3.70,4.24,–
O=S(Nc1ccccc1)c1ccc(-c2ccccc2)cc1 (stereo unspecified),< 3.70,< 3.70,–
COc1ccc2c(c1)OC[C@H]1c3cc(O)c(O)cc3O[C@@H]21,–,–,inactive
CCc1c(C)c(C#N)c(=S)n(C2OC(COC(C)=O)C(OC(C)=O)C(OC(C)=O)C2OC(C)=O)c1-c1ccccc1 (stereo unspecified),< 3.70,3.99,–
Cc1ccc(/C=N/Nc2ccccn2)s1,< 3.70,< 3.70,–
CC1=NN(c2ccccc2)C(=O)/C1=C1/C(=O)N(c2ccccc2)N=C1C,< 3.70,< 3.70,–
O=c1cc(NNc2cccc(Cl)c2)[nH]c(=O)[nH]1,< 3.70,5.98,–
CN1CCC2(CC1)OC(c1ccccc1)C(c1ccccc1)O2 (stereo unspecified),< 3.70,3.94,–
c1cc2c3ccsc3c3sccc3c2s1,< 3.70,< 3.70,–
O=C(Cn1c(=O)sc2ccc(Cl)cc21)N1CCN(CCO)CC1,< 3.70,< 3.70,–
C=C1C2=C(CCCC2)C(=O)OC12CCCCC2,< 4.00,< 4.00,–
C/C=C(\NC(=O)C(CCCCN)NC(=O)C(C)NC(=O)C1CSC(C)C(NC(=O)C2CSCC(NC(=O)C(C)NC(=O)C(N)C(C)CC)C(=O)NC(CCCCN)C(=O)NC(Cc3ccccc3)C(=O)NC(CC(C)C)C(=O)N2)C(=O)N2CCCC2C(=O)NCC(=O)N1)C(=O)NCC(=O)NC1CSCC2NC(=O)C(Cc3ccc(O)cc3)NC(=O)C(CSC=CNC2=O)NC(=O)C(CC(N)=O)NC(=O)C(Cc2ccccc2)NC1=O (stereo unspecified),–,–,inactive
COC1CCC(=O)N1CCn1c(SCc2ccccc2)nc2ccccc21 (stereo unspecified),< 4.03,< 4.03,–
O=C1C(=Cc2cccc(Br)c2)C(=O)c2ccccc21,4.81,4.64,–

SMILES,pEC50,pIC50,outcome
CCOC(=O)[C@H]1Nc2ccc(Cl)cc2[C@H]2c3ccccc3O[C@H]21,< 4.52,< 4.52,–
CC(=O)Oc1cccc2c1ccc1nonc12,< 3.76,4.55,–
Cc1ccsc1C(=S)Nc1ccc(Cl)c(C(=O)OC(C(C)C)C(C)C)c1,6.51,4.67,–
CC(C)Cn1cnnc1NS(=O)(=O)c1cc(C(=O)NN)c(Cl)cc1S,< 3.70,< 3.70,–
CC(C)CC(C#CCCOC(=O)c1ccccc1)OC(=O)c1ccccc1 (stereo unspecified),< 3.70,4.02,–
Cc1ccc(C2(c3ccccc3)OC3OC=CC32)cc1 (stereo unspecified),< 3.70,4.15,–
CC(N1CCS(=O)(=O)CC1)P(=O)(O)O (stereo unspecified),< 3.70,< 3.70,–
CC(O)C1CC1(CO)CNc1cc(Cl)nc(N)n1 (stereo unspecified),< 3.70,< 3.70,–
Nc1nc2c(ncn2C2C=CC(COS(N)(=O)=O)C2)c(=O)[nH]1 (stereo unspecified),< 3.70,< 3.70,–
Cc1cc(C(C)(C)C)oc(=O)c1NC(=O)c1ccccc1,< 3.70,3.81,–
O=C1NC(=S)N/C1=C/c1ccccc1O,< 3.70,3.91,–
Cc1nc2c(=S)n(C)ncc2[nH]1,4.51,< 4.00,–
COc1ccc(/C=C(\C#N)c2ccccc2[N+](=O)[O-])cc1,< 3.70,4.90,–
C#C[C@]1(O)CC[C@H]2[C@@H]3C[C@@H](O)[C@]45CC4CC[C@]5(C)[C@H]3CC[C@@]21C (stereo partly specified),< 3.70,4.14,–
N=c1c2c(-c3ccccc3)c[nH]c2ncn1N,< 3.70,< 3.70,–
NC(=O)C(NN=C1c2ccccc2-c2ccccc21)(c1ccccc1)c1ccccc1,< 3.70,4.55,–
CC[N+]12CN3CN(CN(C3)C1)C2,< 3.07,3.36,–
CC1CN=C(N(C(=O)Nc2ccccc2)c2ccccc2)S1 (stereo unspecified),< 3.70,< 3.70,–
COc1cc2c(cc1OC)C(C#N)C2 (stereo unspecified),2.98,2.88,–
O=c1cc[nH]c(=O)n1C1CCC(CO)O1 (stereo unspecified),< 3.70,< 3.70,–
O=C(O)C(O)(O)C(O)(O)C(=O)O,< 3.70,< 3.70,–
Cn1c(-c2ccc(-c3cc(-c4cccs4)c(-c4cccs4)n3C)cc2)cc(-c2cccs2)c1-c1cccs1,< 3.70,< 3.70,–

SMILES,pEC50,pIC50,outcome
CC(O)C(N=Cc1ccccc1[O-])C(=O)[O-].CC(O)C(N=Cc1ccccc1[O-])C(=O)[O-].[Co+2] (stereo unspecified),< 3.44,4.19,–
CN1CCC23CCCC[C@H]2C1CC1=C3CC(=O)CC1 (stereo partly specified),< 3.16,3.58,–
CCS(=O)(=O)[C@@]1(C#N)CC[C@]1(C#N)S(=O)(=O)CC,3.19,3.06,–
Cc1cn(C2CC(N=[N+]=[N-])C(COC(=O)CCCCCCCCCCOc3ccc(I)cc3)O2)c(=O)[nH]c1=O (stereo unspecified),6.93,4.75,–
COC(=O)c1cc(C(c2cc(C(=O)OC)c(O)cc2C)C(Cl)Cl)c(C)cc1O,< 4.04,5.19,–
C/C(CC(=O)Nc1cccc(Cl)c1C)=N\NC(=O)c1ccncc1,< 3.56,3.89,–
COC(=O)C(CNC(=O)/C=C/c1ccc(OC(C)=O)c(OC(C)=O)c1)NC(=O)/C=C/c1ccc(OC(C)=O)c(OC(C)=O)c1 (stereo unspecified),< 3.70,4.44,–
CC(C(=O)ON1C(=O)CCC1=O)c1ccc(C(=O)c2ccccc2)s1 (stereo unspecified),< 3.70,< 3.70,–
CC[C@]1(Cc2ccc(OC)c(OC)c2)C=[N+]([O-])O[C@H](OC2CCCC2(c2ccccc2)c2ccccc2)[C@@H]1OC(C)=O (stereo partly specified),< 3.70,5.42,–
CN(C)CCCOc1c(Br)cc(CCN(C)C)cc1Br,–,–,inactive
CC(C)=CCOc1cc(O)c2c(c1)C(=O)c1cc(C)cc(O)c1C2=O,< 4.30,< 4.30,–
CC(=O)CSc1sc(C(C)=O)c(N)c1C#N,< 3.70,< 3.70,–
Cn1c(=O)[nH]n(C2Cn3c(=O)n(C)c(=O)n3-c3ccccc32)c1=O (stereo unspecified),< 3.70,< 3.70,–
CCSCCCCCCCCCCC(=O)OCC1OC(n2cc(C)c(=O)[nH]c2=O)CC1F (stereo unspecified),7.88,6.70,–
COc1cc(O)c(C(=O)CC(C)=O)c(OC)c1,< 3.40,3.76,–
O=[N+]([O-])c1cc[n+]([O-])cc1,< 2.85,5.05,–
Fc1ccc(F)c(C=NC23CC4CC(CC(C4)C2)C3)c1,< 3.70,< 3.70,–
CC(=O)c1cn(-c2ccc(Cl)cc2)c(=O)c2c(N)n[nH]c12,3.78,< 3.70,–
O=C(Nc1ccc([N+](=O)[O-])cn1)Nc1ccccc1F,< 3.70,< 3.70,–
CC(CC12C=CC3(OO1)C(C)(C)CCCC3(C)O2)OC(=O)c1ccccc1 (stereo unspecified),< 3.70,5.15 and 4.95,–
O=C(O)[C@H]1[C@@H](C2CCCCC2)O[C@@H](C2CCCCC2)O[C@H]1C(F)(F)F,< 3.70,3.72,–
